Results on one compound are retold here after publication PMC9501058, “Clinical Effectiveness and Pharmacokinetics of Dalbavancin in Treatment-Experienced Patients with Skin, Osteoarticular, or Vascular Infections” (Pharmaceutics, 2022).

Data set [1] can be described thus: clinical. The note with it: human, in vivo, iv.
The conditions of data set [2]: human, in vivo.
The conditions of data set [3]: 35 healthy subjects, single infusion of 1500 mg; ref Rappo et al. 15; cited from earlier work.
The conditions of data set [4]: ref Dunne et al. 16; cited from earlier work.
Data set [5] in a line: Adverse events under DBV. The data set is classed as in vivo, human. The text has this:
Table 1 Overall patients’ characteristics at the baseline. | column: Overall / n = 76; Intensive PK Study (n = 41) / Group 0 (n = 17)

Data set [6] has as its system plasma proteins (mainly albumin). The note with it: human; cited from earlier work.
The conditions of data set [7]: cited from earlier work.
For data set [8] the following is noted: single 1000 mg infusion; ref Nicolau et al. 14; cited from earlier work.

Read-outs that look alike come from different tables or passages of the source.

Compound `CN[C@H]1C(=O)N[C@@H]2Cc3ccc(cc3)Oc3cc4cc(c3O[C@@H]3O[C@H](C(=O)O)[C@@H](O)[C@H](O)[C@H]3NC(=O)CCCCCCCCC(C)C)Oc3ccc(cc3Cl)[C@@H](O)[C@@H]3NC(=O)[C@H](NC(=O)[C@@H]4NC(=O)[C@@H](NC2=O)c2cc(cc(O)c2Cl)Oc2cc1ccc2O)c1ccc(O)c(c1)-c1c(O[C@H]2O[C@H](CO)[C@@H](O)[C@H](O)[C@@H]2O)cc(O)cc1[C@@H](C(=O)NCCCN(C)C)NC3=O` [DBV, Dalbavancin] registered a Cmax in data set [1] (1500 mg, Cmax I dose) of 343 µg/mL. In data set [1] (Cmax II dose), this compound displayed a Cmax of 337 µg/mL. Besides, in data set [2], the “AUC0–3w” value is 39,985 [37,045–39,985] mg/L·h and the “Cmax II dose” value is 379.5 [321.3–448.8] mg/L. In data set [2] (iv), the “AUC0–1w” value is 26,693 [20,842–28,630] mg/L·h, the “AUC0–2w” value was 34,168 [25,336–37,301] mg/L·h, the “AUC0–3w” value was 39,270 [28,876–43,971] mg/L·h and the “Cmax I dose” value was 347.0 [292.4–479.2] mg/L. Also, the “Cumul. AUC0–4w” value in data set [2] (iv) was 41,681 [32,055–48,180] mg/L·h. The “Penetration into the epithelial-lining fluid” value in data set [3] was 36%. Also, the “Mean bone/plasma AUC” value in data set [4] was 13.1%. Moreover, the “AEs: yes” value in data set [5] (number of patients [%], group 0 (n = 17): single 1500 mg dose) was 1 [6%]. Moreover, in data set [5] (number of patients, overall n = 76), the “AEs: yes” value was determined as 1. The “Protein binding (mean percentage in humans)” value in data set [6] was 93%. In addition, the Elimination half-life in data set [7] is 220 to 240 h. Moreover, the “Mean penetration into skin blister fluid compared with plasma” value in data set [8] is listed as 59.6%.

In general, Cmax refers to the peak of the concentration-time curve.
